We go through seven molecules from ChEMBL document CHEMBL3880418, “Pyripyropene derivative having ACAT2 inhibiting activity and stable to metabolizing enzymes” (2013).

Series [1] is described as follows: Half life in Sprague-Dawley rat liver microsomes at 6 ug/ml by HPLC method. The series is classed as ADME. For orientation: Microsomes from liver hold many membrane-bound enzymes, among them those of drug oxidation.
Series [2] concerns the target T1, Sterol O-acyltransferase 2 (Mus musculus) (UniProt O88908).
T1 sequence (whole entry): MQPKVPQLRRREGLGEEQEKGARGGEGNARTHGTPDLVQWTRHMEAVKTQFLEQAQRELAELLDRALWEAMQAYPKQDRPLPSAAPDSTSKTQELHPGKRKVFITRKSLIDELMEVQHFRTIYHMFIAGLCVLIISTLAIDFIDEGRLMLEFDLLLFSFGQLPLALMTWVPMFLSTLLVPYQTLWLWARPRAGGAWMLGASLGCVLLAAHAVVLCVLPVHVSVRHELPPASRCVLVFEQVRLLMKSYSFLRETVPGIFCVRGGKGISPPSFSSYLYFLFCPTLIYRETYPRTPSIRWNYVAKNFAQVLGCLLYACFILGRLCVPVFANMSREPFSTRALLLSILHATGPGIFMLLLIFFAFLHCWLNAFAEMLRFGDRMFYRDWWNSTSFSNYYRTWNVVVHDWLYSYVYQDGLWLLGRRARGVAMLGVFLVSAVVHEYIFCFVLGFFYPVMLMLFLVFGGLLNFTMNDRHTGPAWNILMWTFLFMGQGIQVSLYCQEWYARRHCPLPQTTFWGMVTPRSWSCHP
In words: Ratio of compound IC50 to PRD 043 IC50 for ACAT2 in mouse hepatic microsomal membranes. The series is classed as cell membranes. Particulars: Liver, Microsomal Membrane.

Some results are limits rather than exact numbers.

Regarding `Cc1ccc([C@@H]2OC[C@@]3(C)[C@@H]4C[C@H](OC(=O)c5ccc(F)cc5)[C@@]5(C)Oc6cc(-c7cccnc7)oc(=O)c6[C@H](O)[C@@H]5[C@@]4(C)CC[C@@H]3O2)c(C)c1`, the half-life (commonly how long it takes for the measured level to halve) at 6 ug/ml in series [1] was over 9 h. Also, in series [2], the Ratio IC50 is under 20.
Regarding `CC(C)C(=O)OC[C@@]1(C)[C@@H]2C[C@H](OC(=O)C3CCCCC3)[C@@]3(C)Oc4cc(-c5cccnc5)oc(=O)c4[C@H](O)[C@@H]3[C@@]2(C)CC[C@@H]1OC(=O)C(C)C`, the half-life at 6 ug/ml in series [1] was over 9 h. Besides, in series [2], the Ratio IC50 is under 20.
On to `Cc1ccccc1[C@@H]1OC[C@@]2(C)[C@@H]3C[C@H](OC(=O)c4ccc(C#N)cc4)[C@@]4(C)Oc5cc(-c6cccnc6)oc(=O)c5[C@H](O)[C@@H]4[C@@]3(C)CC[C@@H]2O1`, for which, in series [1], the half-life at 6 ug/ml is over 9 h. Further, the Ratio IC50 in series [2] is under 20.
In the same order, the values of `COc1ccccc1[C@@H]1OC[C@@]2(C)[C@@H]3C[C@H](OC(=O)c4ccc(F)cc4)[C@@]4(C)Oc5cc(-c6cccnc6)oc(=O)c5[C@H](O)[C@@H]4[C@@]3(C)CC[C@@H]2O1` are over 9 h and under 20.
In the same order, the values of `Cc1cccc([C@@H]2OC[C@@]3(C)[C@@H]4C[C@H](OC(=O)c5ccc(F)cc5)[C@@]5(C)Oc6cc(-c7cccnc7)oc(=O)c6[C@H](O)[C@@H]5[C@@]4(C)CC[C@@H]3O2)c1` are over 9 h and under 20.
The like results for `CC(=O)O[C@H]1CC[C@@]2(C)[C@@H](C[C@H](OC(=O)c3ccc(C#N)cc3)[C@@]3(C)Oc4cc(-c5cccnc5)oc(=O)c4[C@H](O)[C@H]23)[C@]1(C)COC(=O)C(C)C` were, in that order, over 9 h and under 20.
Molecule `COc1cccc(C(=O)O[C@H]2C[C@H]3C(C)(COC(C)=O)[C@@H](OC(C)=O)CC[C@]3(C)[C@H]3[C@@H](O)c4c(cc(-c5cccnc5)oc4=O)O[C@]23C)c1` (single isomer, unassigned) displayed a half-life at 6 ug/ml in series [1] of over 9 h. Further, the Ratio IC50 in series [2] was under 5.
